Assay results reported in paper PMC7829778, “Optimization of 1,4-Naphthoquinone Hit Compound: A Computational, Phenotypic, and In Vivo Screening against Trypanosoma cruzi” (Molecules, 2021).
Read-outs that look alike come from different tables or passages of the source.

How the values were obtained:
[1] = Cytotoxicity in vitro assay (CellTiter Glo, ATP level); format: cell-based; conditions: African green monkey, Vero cells
Method: The cultures were maintained at 37 °C in humidified atmosphere of 5% CO2.
To evaluate the toxic effects of the 1,4-naphthoquinone derivatives on mammalian cells, Vero cells were seeded at a density of 1.5 × 10^4 cells/well in 96-well white culture plates. Twenty-four hours later, the cell cultures were incubated for 72 h at 37 °C with 1,4-naphthoquinone derivatives (series 1(a–i) and 2(a–j)) and Bz (500–1.9 µM) diluted in RPMI medium supplemented with 10% FBS. After incubation, the cell viability, measured by ATP level, was assessed by adding 20 µL/well of the CellTiter Glo (Promega Corporation, Madison, WI, EUA) solution. The luminescent signal was read on the FlexStation 3 reader (Molecular Devices, Sunnyvale, CA, USA). […] All treatments and controls were performed at low concentration (≤1%) of dimethyl sulfoxide (DMSO). At least three independent assays were performed in duplicate.

[2] = test system: T. cruzi trypomastigotes Y strain; test: Trypanocidal activity against trypomastigotes, Y strain (CellTiter Glo); format: cell-based; conditions: Trypanosoma cruzi, 24 h
Method: (§1) T. cruzi Dm28c-Luc clone, genetically modified to express firefly luciferase, and Y strain were used in the drug screening assay. Vero cells were infected with T. cruzi, Dm28c-Luc or Y strain, in a 10:1 parasites/host cell ratio and maintained at 37 °C in humidified atmosphere of 5% CO2. Trypomastigotes were harvested from the infected culture supernatant on the 4th day post-infection (dpi) followed by quantification of the number of parasites/mL in Neubauer chamber.
(§2) Screening of the compounds was performed against trypomastigotes and intracellular amastigote forms. Trypomastigotes (1 × 10^6 parasites/well), Dm28c-Luc clone and Y strain, were incubated for 24 h at 37 °C with the 1,4 naphthoquinone derivatives and Bz (0.41–100 μM) and their viability determined by the activity of the luciferase enzyme, after addition of luciferin substrate (300 μg/mL), or CellTiter Glo. The luminescent signal was detected on the FlexStation 3 reader.

[3] = test system: T. cruzi trypomastigotes Dm28c-Luc; test: Trypanocidal activity against trypomastigotes, Dm28c-Luc clone (luciferase); format: cell-based, Trypanosoma cruzi; conditions: Trypanosoma cruzi, 24 h, mean ± SD of three experiments; for IC50: read-out: Trypanocidal Effect Trypomastigotes Dm28c-Luc IC50; for IC90: read-out: Trypanocidal Effect Trypomastigotes Dm28c-Luc IC90
Method: as §1, §2

[4] = test system: intracellular amastigotes of T. cruzi (Dm28c-Luc clone); test: Luminescent screening against intracellular amastigotes in infected Vero cells; format: cell-based, Trypanosoma cruzi; conditions: infected Vero cells treated for 72 h, mean ± SD of three experiments
Method: as §1
The effect of the compounds against intracellular amastigotes was screened in 72 h T. cruzi-infected Vero cells. Briefly, Vero cells seeded (1.5 × 10^4 cells/well) on 96-well white plate infected with trypomastigotes (Dm28c-Luc) at a 10:1 multiplicity of parasites/cell. After 24 h of infection, the cultures were washed with PBS and then, treated for 72 h at 37 °C with naphthoquinone derivatives and Bz (0.41–100 µM). After treatment, luciferin (300 µg/mL) was added to the culture and the viability of the parasites was assessed by reading the luminescent signal using the FlexStation 3 reader. Controls were also performed in no-toxic concentrations of DMSO (≤1%).

[5] = Table 1, mean ± SD, read-out: Vero Cells Toxicity CC50
[6] = read-out: Trypanocidal Effect Trypomastigotes Y Strain IC50, trypomastigotes, 24 h, mean ± SD of three experiments
[7] = read-out: Trypanocidal Effect Trypomastigotes Y Strain IC90, trypomastigotes, 24 h, mean ± SD of three experiments
[8] = trypomastigotes, mean ± SD of three experiments, read-out: Trypanocidal Effect Trypomastigotes Y Strain IC50
[9] = trypomastigotes, mean ± SD of three experiments, read-out: Trypanocidal Effect Trypomastigotes Y Strain IC90

COc1ccc(C(Sc2ccc(Cl)cc2)C2=C(O)C(=O)c3ccccc3C2=O)c(OC)c1 (stereo not shown) [Compound 1h, 2-(((4-chlorophenyl)thio)(2,4-dimethoxyphenyl)methyl)-3-hydroxynaphthalene-1,4-dione]
CC50 at 72 h [1, 5]: 24.4 ± 2.6 µM
CC50 at 72 h ([1]; Table 2, read-out: CC50 Vero): 24 to 34 µM
IC50 [2, 6]: 22.9 ± 7.1 µM
IC90 [2, 7]: 31.9 ± 6.1 µM
IC50 [3]: 15.4 ± 4.6 µM
IC50 ([4]; Trypanosoma cruzi, Vero, 72 h): 12.1 ± 3.9 µM
IC90 ([4]; Trypanosoma cruzi): 19.4 ± 3.6 µM

COc1ccc(SC(C2=C(O)C(=O)c3ccccc3C2=O)c2ccc(OC)cc2)cc1 (stereo not shown) [Compound 2i, 2-Hydroxy-3-((4-methoxyphenyl)((4-methoxyphenyl)thio)methyl)naphthalene-1,4-dione]
CC50 at 72 h [1, 5]: 44.8 ± 3.3 µM
CC50 at 72 h ([1]; Table 2, read-out: CC50 Vero): 44.8 ± 3.3 µM
IC50 [2, 8]: 10.6 ± 0.4 µM
IC90 [2, 9]: 31.6 ± 5.4 µM
IC50 [3]: 24.1 ± 2.7 µM
IC90 [3]: 44.9 ± 6.7 µM
IC50 ([4]; Trypanosoma cruzi, Vero, 72 h): 15.8 ± 3.2 µM
IC90 ([4]; Trypanosoma cruzi): 34.8 ± 5.3 µM

CCCSC(C1=C(O)C(=O)c2ccccc2C1=O)c1ccc(OC)cc1 (stereo not shown) [Compound 2g, 2-Hydroxy-3-((4-methoxyphenyl)(propylthio)methyl)naphthalene-1,4-dione]
CC50 at 72 h [1, 5]: 47.7 ± 5.2 µM
CC50 at 72 h ([1]; Table 2, read-out: CC50 Vero): 47.7 ± 5.2 µM
IC50 [2, 8]: 12.7 ± 3.9 µM
IC90 [2, 9]: 23.7 ± 4.1 µM
IC50 [3]: 13.7 ± 4.1 µM
IC90 [3]: 28.7 ± 5.1 µM
IC50 ([4]; Trypanosoma cruzi, Vero, 72 h): 10.3 ± 2.4 µM
IC90 ([4]; Trypanosoma cruzi): 37.7 ± 4.1 µM

COc1ccc(C(Sc2ccc(C)cc2)C2=C(O)C(=O)c3ccccc3C2=O)cc1 (stereo not shown) [Compound 2d, 2-Hydroxy-3-((4-methoxyphenyl)(p-tolylthio)methyl) naphthalene-1,4-dione]
CC50 at 72 h [1, 5]: 142 ± 17.6 µM
CC50 at 72 h ([1]; Table 2, read-out: CC50 Vero): 142 ± 17.6 µM
IC50 [2, 8]: 31.1 ± 1.8 µM
IC90 [2, 9]: 49.7 ± 7.1 µM
IC50 [3]: 24.3 ± 3.4 µM
IC90 [3]: 82.2 ± 7.7 µM
IC50 ([4]; Trypanosoma cruzi, Vero, 72 h): 11.9 ± 1.7 µM
IC90 ([4]; Trypanosoma cruzi): 28.8 ± 4.6 µM

COc1ccc(C(Sc2ccc(Cl)cc2)C2=C(O)C(=O)c3ccccc3C2=O)c(OC)c1OC (stereo not shown) [Compound 1i, 2-(((4-chlorophenyl)thio)(2,3,4-trimethoxyphenyl)methyl)-3-hydroxynaphthalene-1,4-dione]
CC50 at 72 h [1, 5]: 34.2 ± 3.4 µM
CC50 at 72 h ([1]; Table 2, read-out: CC50 Vero): 24 to 34 µM
IC50 [2, 6]: 30.1 ± 2.3 µM
IC90 [2, 7]: 38.9 ± 4.3 µM
IC50 [3]: 21.5 ± 2.9 µM
IC50 ([4]; Trypanosoma cruzi, Vero, 72 h): 15.9 ± 3.1 µM
IC90 ([4]; Trypanosoma cruzi): 27.2 ± 3.4 µM

COc1ccc(C(Sc2ccc(SC)cc2)C2=C(O)C(=O)c3ccccc3C2=O)cc1 (stereo not shown) [Compound 2j, 2-hydroxy-3-((4-methoxyphenyl)((4-(methylthio)phenyl)thio)methyl)naphthalene-1,4-dione]
CC50 at 72 h [1, 5]: 93.5 ± 6.6 µM
CC50 at 72 h ([1]; Table 2, read-out: CC50 Vero): 93.5 ± 6.6 µM
IC50 [2, 8]: 89.6 ± 5.4 µM
IC90 [2, 9]: > 100 µM
IC50 [3]: 52.7 ± 12.6 µM
IC90 [3]: > 100 µM
IC50 ([4]; Trypanosoma cruzi, Vero, 72 h): 60.2 ± 9.8 µM
IC90 ([4]; Trypanosoma cruzi): > 100 µM

COc1ccc(C(Sc2cccc(C)c2)C2=C(O)C(=O)c3ccccc3C2=O)cc1 (stereo not shown) [Compound 2c, 2-Hydroxy-3-((4-methoxyphenyl)(m-tolylthio)methyl)naphthalene-1,4-dione]
CC50 at 72 h [1, 5]: 48.9 ± 4.7 µM
CC50 at 72 h ([1]; Table 2, read-out: CC50 Vero): 48.9 ± 4.7 µM
IC50 [2, 8]: 26.2 ± 4.8 µM
IC90 [2, 9]: 32.8 ± 5.1 µM
IC50 [3]: 52.3 ± 6.4 µM
IC90 [3]: 84.6 ± 11.4 µM
IC50 ([4]; Trypanosoma cruzi, Vero, 72 h): ~12 µM
IC90 ([4]; Trypanosoma cruzi): 30.9 ± 4.7 µM
IC50 [4]: 12.6 ± 2.4 µM

O=C1C(O)=C(C(Sc2ccc(Cl)cc2)c2ccccc2)C(=O)c2c(O)cccc21 (stereo not shown) [Compound 1f, 3-(((4-chlorophenyl)thio)(phenyl)methyl)-2,5-dihydroxynaphthalene-1,4-dione]
CC50 at 72 h [1, 5]: 41.1 ± 2.1 µM
CC50 at 72 h ([1]; Table 2, read-out: CC50 Vero): 41.1 ± 2.1 µM
IC50 [3]: 9.8 ± 0.7 µM
IC90 [3]: 28.1 ± 1.7 µM
IC50 ([4]; Trypanosoma cruzi, Vero, 72 h): 10.1 ± 1.4 µM
IC90 ([4]; Trypanosoma cruzi): 29.1 ± 2.1 µM

COc1ccc(C(Sc2ccccc2)C2=C(O)C(=O)c3ccccc3C2=O)cc1 (stereo not shown) [Compound 2a, 2-Hydroxy-3-((4-methoxyphenyl)(phenylthio)methyl)naphthalene-1,4-dione]
CC50 at 72 h [1, 5]: 45.1 ± 1.9 µM
CC50 at 72 h ([1]; Table 2, read-out: CC50 Vero): 45.1 ± 1.9 µM
IC50 [2, 8]: 31.2 ± 4.3 µM
IC90 [2, 9]: 38.9 ± 5.3 µM
IC50 [3]: 27.4 ± 2.9 µM
IC90 [3]: 32.1 ± 1.6 µM
IC50 ([4]; Trypanosoma cruzi, Vero, 72 h): ≤ 6.9 µM
IC90 ([4]; Trypanosoma cruzi): 25.3 ± 1.9 µM
IC50 [4]: 6.7 ± 1.6 µM
